# Measurements taken from patent US9216999B2, “Substituted pyrrolo[2,3-h][1,6]naphthyridines and compositions thereof as JAK inhibitors” (priority 2011, dated 2015).
# Like-named read-outs stand apart in the source and are kept apart here.
# Key:
# Type in all cases: biochemical
# [1] = target: JAK2 (Homo sapiens (Human), UniProt O60674); assay: Enzyme assay (Assay Example^a 1), JAK2
# [2] = target: JAK1 (Homo sapiens (Human), UniProt P23458); assay: Enzyme assay (Assay Example^a 1), JAK1; settings: ATP 100 μM
# [3] = target: Tyk2 (Homo sapiens (Human), UniProt P29597); assay: Enzyme assay (Assay Example^a 1), Tyk2; settings: ATP 100 μM
# Tyk2, sequence (P29597 whole entry): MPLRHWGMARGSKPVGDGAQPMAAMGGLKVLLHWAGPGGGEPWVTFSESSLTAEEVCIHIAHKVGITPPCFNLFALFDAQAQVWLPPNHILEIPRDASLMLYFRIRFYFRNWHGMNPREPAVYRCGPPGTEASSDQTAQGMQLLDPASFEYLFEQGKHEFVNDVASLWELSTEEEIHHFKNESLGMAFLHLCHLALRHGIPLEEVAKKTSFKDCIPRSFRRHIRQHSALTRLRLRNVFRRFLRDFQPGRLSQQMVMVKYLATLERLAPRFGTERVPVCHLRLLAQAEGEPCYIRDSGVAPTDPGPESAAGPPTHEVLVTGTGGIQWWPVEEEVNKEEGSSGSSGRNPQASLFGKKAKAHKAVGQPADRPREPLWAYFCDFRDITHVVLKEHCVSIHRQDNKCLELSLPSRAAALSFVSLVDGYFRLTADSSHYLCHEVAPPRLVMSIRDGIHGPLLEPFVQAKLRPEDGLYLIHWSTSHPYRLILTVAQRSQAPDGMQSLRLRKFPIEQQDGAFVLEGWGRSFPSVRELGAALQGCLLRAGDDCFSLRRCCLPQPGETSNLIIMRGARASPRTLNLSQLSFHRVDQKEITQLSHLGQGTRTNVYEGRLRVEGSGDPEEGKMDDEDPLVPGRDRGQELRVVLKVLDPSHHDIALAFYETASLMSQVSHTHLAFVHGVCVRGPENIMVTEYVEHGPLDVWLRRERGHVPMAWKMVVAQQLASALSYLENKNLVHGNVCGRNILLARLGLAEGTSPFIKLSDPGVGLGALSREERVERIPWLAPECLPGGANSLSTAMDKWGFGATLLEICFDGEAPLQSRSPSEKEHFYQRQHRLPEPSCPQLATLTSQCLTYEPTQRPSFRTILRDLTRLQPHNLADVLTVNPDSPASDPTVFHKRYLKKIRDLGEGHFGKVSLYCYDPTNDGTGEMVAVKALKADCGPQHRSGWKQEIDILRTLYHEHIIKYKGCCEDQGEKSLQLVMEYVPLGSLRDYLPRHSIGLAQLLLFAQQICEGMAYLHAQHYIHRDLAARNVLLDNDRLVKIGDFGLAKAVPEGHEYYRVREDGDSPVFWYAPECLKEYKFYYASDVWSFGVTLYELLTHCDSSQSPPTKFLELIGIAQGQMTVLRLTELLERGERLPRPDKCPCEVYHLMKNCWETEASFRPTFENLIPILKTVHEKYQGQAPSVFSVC
# [4] = target: JAK3 (Homo sapiens (Human), UniProt P52333); assay: Enzyme assay (Assay Example^a 1), JAK3
# JAK3, sequence (P52333 whole entry): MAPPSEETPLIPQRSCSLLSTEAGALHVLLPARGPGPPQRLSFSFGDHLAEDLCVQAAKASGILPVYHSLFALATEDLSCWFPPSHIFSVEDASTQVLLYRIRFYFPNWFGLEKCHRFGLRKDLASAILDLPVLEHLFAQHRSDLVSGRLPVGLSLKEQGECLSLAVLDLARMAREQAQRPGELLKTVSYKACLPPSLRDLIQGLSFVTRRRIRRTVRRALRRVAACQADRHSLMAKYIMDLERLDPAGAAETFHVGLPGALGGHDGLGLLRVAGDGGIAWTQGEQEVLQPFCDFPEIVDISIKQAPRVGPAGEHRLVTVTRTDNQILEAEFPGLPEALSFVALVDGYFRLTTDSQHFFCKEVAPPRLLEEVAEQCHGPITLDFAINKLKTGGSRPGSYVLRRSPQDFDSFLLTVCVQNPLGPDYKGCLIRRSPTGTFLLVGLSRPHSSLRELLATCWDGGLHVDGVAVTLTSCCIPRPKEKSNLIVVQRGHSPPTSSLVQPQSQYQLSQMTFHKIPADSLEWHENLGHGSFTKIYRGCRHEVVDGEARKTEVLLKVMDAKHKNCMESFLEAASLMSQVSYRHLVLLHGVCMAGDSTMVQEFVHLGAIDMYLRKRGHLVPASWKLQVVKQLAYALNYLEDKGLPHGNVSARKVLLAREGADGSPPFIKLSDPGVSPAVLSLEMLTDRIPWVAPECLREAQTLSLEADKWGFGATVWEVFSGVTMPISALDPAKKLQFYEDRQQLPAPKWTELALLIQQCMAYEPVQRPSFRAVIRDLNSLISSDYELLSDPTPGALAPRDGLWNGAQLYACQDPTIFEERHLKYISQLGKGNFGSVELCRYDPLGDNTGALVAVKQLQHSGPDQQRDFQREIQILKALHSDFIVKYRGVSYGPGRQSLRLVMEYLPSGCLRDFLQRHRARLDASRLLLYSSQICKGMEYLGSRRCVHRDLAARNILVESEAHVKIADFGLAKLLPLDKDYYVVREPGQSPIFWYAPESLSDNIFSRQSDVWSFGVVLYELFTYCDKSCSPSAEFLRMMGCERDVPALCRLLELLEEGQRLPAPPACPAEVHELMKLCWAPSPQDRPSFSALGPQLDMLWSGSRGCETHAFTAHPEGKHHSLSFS
IC50 ([4]; ATP 100 μM) [µM],SMILES,IC50 [2] [µM],IC50 [3] [µM],further results
–,CC(C)(C)OC(=O)N1CCC(c2nnn3cnc4[nH]ccc4c23)CC1 [compound 24],–,–,IC50 [1]: 0.51 µM
–,FC(F)(F)c1ccc(CN2CCC(c3nnn4cnc5[nH]ccc5c34)CC2)cc1 [compound 33],–,–,IC50 [1]: 0.019 µM
–,c1cc2c(ncn3nnc(C4CCNCC4)c23)[nH]1 [compound 27],–,–,IC50 [1]: > 1 µM
–,"OC(CN[C@H]1CC[C@H](c2nnn3cnc4[nH]ccc4c23)CC1)(c1ccccc1)C(F)(F)F (mixture of isomers) [196b, 3-{[trans-4-(7H-pyrrolo[3,2-e][1,2,3]triazolo[1,5-c]pyrimidin-1-yl)cyclohexyl]amino}-1,1,1-trifluoro-2-phenylpropan-2-ol]",–,–,"IC50 ([2]; Table^a 154): 0.0032 µM; IC50 ([1]; ATP 100 μM, Table^a 154): 0.036 µM"
–,"COc1ccc(CN2CCC(c3nnn4cnc5[nH]ccc5c34)CC2)cn1 [compound 170, 1-{1-[(6-methoxypyridin-3-yl)methyl]piperidin-4-yl}-7H-pyrrolo[3,2-e][1,2,3]triazolo[1,5-c]pyrimidine]",–,–,"IC50 ([2]; Table^a 154): 0.021 µM; IC50 ([3]; Table^a 154): > 1 µM; IC50 ([4]; ATP 100 μM, Table^a 154): 0.52 µM"
–,"OC(CN1CCC(c2nnn3cnc4[nH]ccc4c23)CC1)c1ccc(C(F)(F)F)cc1 (racemic) [compound 212, 2-[4-(7H-Pyrrolo[3,2-e][1,2,3]triazolo[1,5-c]pyrimidin-1-yl)piperidin-1-yl]-1-[4-(trifluoromethyl)phenyl]ethanol]",–,–,"IC50 ([3]; Table^a 154): 0.45 µM; IC50 ([1]; ATP 100 μM, Table^a 154): 0.047 µM"
–,N#Cc1ccc(NC[C@H]2CC[C@H](c3nnn4cnc5[nH]ccc5c34)CC2)cc1C(F)(F)F [compound 105],–,–,"IC50 ([3]; Table^a 154): 0.37 µM; IC50 ([4]; ATP 100 μM, Table^a 154): > 1 µM; IC50 ([1]; ATP 100 μM, Table^a 154): 0.19 µM"
> 1,"FC(F)(F)CN(CC1CC1)[C@H]1CC[C@H](c2nnn3cnc4[nH]ccc4c23)CC1 [compound 413, trans-N-(Cyclopropylmethyl)-4-(7H-pyrrolo[3,2-e][1,2,3]triazolo[1,5-c]pyrimidin-1-yl)-N-(2,2,2-trifluoroethyl)cyclohexanamine]",0.02,0.62,–
–,FC(F)(F)c1cc(CN2CCC(c3nnn4cnc5[nH]ccc5c34)CC2)ccc1Cl [compound 155],–,–,"IC50 ([2]; Table^a 154): 0.011 µM; IC50 ([1]; ATP 100 μM, Table^a 154): 0.032 µM"
–,"OC(CN[C@H]1CC[C@@H](c2nnn3cnc4[nH]ccc4c23)CC1)(c1ccccc1)C(F)(F)F (mixture of isomers) [196a, 3-{[cis-4-(7H-pyrrolo[3,2-e][1,2,3]triazolo[1,5-c]pyrimidin-1-yl)cyclohexyl]amino}-1,1,1-trifluoro-2-phenylpropan-2-ol]",–,–,"IC50 ([2]; Table^a 154): 0.06 µM; IC50 ([1]; ATP 100 μM, Table^a 154): 0.75 µM"
–,FC(F)(F)Oc1ccc(CNC[C@H]2CC[C@H](c3nnn4cnc5[nH]ccc5c34)CC2)cc1 [compound 110],–,–,"IC50 ([2]; Table^a 154): 0.0056 µM; IC50 ([1]; ATP 100 μM, Table^a 154): 0.091 µM"
0.2,"Fc1ccc(C2(NC[C@H]3CC[C@H](c4nnn5cnc6[nH]ccc6c45)CC3)COC2)cc1 [compound 322, N-{[trans-4-(7H-pyrrolo[3,2-e][1,2,3]triazolo[1,5-c]pyrimidin-1-yl)cyclohexyl]methyl}-3-(4-fluorophenyl)oxetan-3-amine]",0.0013,0.43,–
–,Cc1nc(C2CCCCC2)c2c3cc[nH]c3ncn12 [compound 1],0.23,0.59,IC50 [4]: 1.4 µM
0.17,"N#CC(C#N)C[C@H]1CC[C@H](c2nnn3cnc4[nH]ccc4c23)CC1 [compound 432, 2-{[trans-4-(7H-Pyrrolo[3,2-e][1,2,3]triazolo[1,5-c]pyrimidin-1-yl)cyclohexyl]methyl}malononitrile]",–,0.067,IC50 ([1]; ATP 100 μM): 0.0088 µM
–,"Clc1ccc(CN[C@H]2CC[C@@H](c3nnn4cnc5[nH]ccc5c34)CC2)cc1 [197a, cis-N-(4-chlorobenzyl)-4-(7H-pyrrolo[3,2-e][1,2,3]triazolo[1,5-c]pyrimidin-1-yl)cyclohexanamine]",–,–,"IC50 ([2]; Table^a 154): 0.016 µM; IC50 ([3]; Table^a 154): 0.15 µM; IC50 ([4]; ATP 100 μM, Table^a 154): > 1 µM"
0.5,"CC1(C)CC1NC[C@H]1CC[C@H](c2nnn3cnc4[nH]ccc4c23)CC1 (stereo partly drawn) [compound 290, N-{[trans-4-(7H-pyrrolo[3,2-e][1,2,3]triazolo[1,5-c]pyrimidin-1-yl)cyclohexyl]methyl}-2,2-dimethylcyclopropanamine]",0.0076,0.27,–
–,CC1CCN(C(=O)OC(C)(C)C)CC1c1nnn2cnc3[nH]ccc3c12 (stereo not shown) [compound 11],–,–,"IC50 ([1]; ATP 100 μM, Table^a 154): 0.34 µM"
–,"CN(C)S(=O)(=O)c1ccc2c(c1)CCN2C[C@H]1CC[C@H](c2nnn3cnc4[nH]ccc4c23)CC1 [compound 190, 1-{[trans-4-(7H-pyrrolo[3,2-e][1,2,3]triazolo[1,5-c]pyrimidin-1-yl)cyclohexyl]methyl}-N,N-dimethylindoline-5-sulfonamide]",–,–,"IC50 ([2]; Table^a 154): 0.022 µM; IC50 ([3]; Table^a 154): 0.61 µM; IC50 ([4]; ATP 100 μM, Table^a 154): > 1 µM"
0.72,"OCCN(Cc1ccccc1)C[C@H]1CC[C@H](c2nnn3cnc4[nH]ccc4c23)CC1 [compound 268, 2-({[trans-4-(7H-pyrrolo[3,2-e][1,2,3]triazolo[1,5-c]pyrimidin-1-yl)cyclohexyl]methyl}(benzyl)amino)ethanol]",0.0044,0.12,–
–,"FC(F)(F)CNC[C@H]1CC[C@H](c2nnn3cnc4[nH]ccc4c23)CC1 [compound 188, N-{[trans-4-(7H-pyrrolo[3,2-e][1,2,3]triazolo[1,5-c]pyrimidin-1-yl)cyclohexyl]methyl}-2,2,2-trifluoroethanamine]",–,–,"IC50 ([2]; Table^a 154): 0.0012 µM; IC50 ([3]; Table^a 154): 0.063 µM; IC50 ([4]; ATP 100 μM, Table^a 154): 0.11 µM"
0.74,"O=S(=O)(C[C@H]1CC[C@H](c2nnn3cnc4[nH]ccc4c23)CC1)c1ccc(F)cc1 [compound 365, 1-(trans-4-{[(4-fluorophenyl)sulfonyl]methyl}cyclohexyl)-7H-pyrrolo[3,2-e][1,2,3]triazolo[1,5-c]pyrimidine]",0.0054,0.34,–
0.53,"FC1(F)CCN(C[C@H]2CC[C@H](c3nnn4cnc5[nH]ccc5c34)CC2)C1 [compound 328, 1-{trans-4-[(3,3-difluoropyrrolidin-1-yl)methyl]cyclohexyl}-7H-pyrrolo[3,2-e][1,2,3]triazolo[1,5-c]pyrimidine]",0.0073,0.9,–
–,c1cc2c(ncn3nnc(C4CCCNC4)c23)[nH]1 (racemic) [compound 15],–,–,"IC50 ([3]; Table^a 154): > 1 µM; IC50 ([1]; ATP 100 μM, Table^a 154): 2.5 µM"
0.83,"Fc1ccc(C2(NC[C@H]3CC[C@H](c4nnn5cnc6[nH]ccc6c45)CC3)CC2)cc1 [compound 323, N-{[trans-4-(7H-pyrrolo[3,2-e][1,2,3]triazolo[1,5-c]pyrimidin-1-yl)cyclohexyl]methyl}-1-(4-fluorophenyl)cyclopropanamine]",–,0.78,IC50 ([1]; ATP 100 μM): 0.034 µM
–,"Clc1ccc(CN[C@H]2CC[C@H](c3nnn4cnc5[nH]ccc5c34)CC2)cc1 [197b, trans-N-(4-chlorobenzyl)-4-(7H-pyrrolo[3,2-e][1,2,3]triazolo[1,5-c]pyrimidin-1-yl)cyclohexanamine]",–,–,"IC50 ([2]; Table^a 154): 0.0054 µM; IC50 ([3]; Table^a 154): 0.11 µM; IC50 ([4]; ATP 100 μM, Table^a 154): 0.52 µM"
0.12,"N#CCC[C@H]1CC[C@H](c2nnn3cnc4[nH]ccc4c23)CC1 [compound 441, 3-[trans-4-(7H-Pyrrolo[3,2-e][1,2,3]triazolo[1,5-c]pyrimidin-1-yl)cyclohexyl]propanenitrile]",0.0016,0.024,–
–,Cc1cc(OC(F)(F)F)ccc1NC[C@H]1CC[C@H](c2nnn3cnc4[nH]ccc4c23)CC1 [compound 104],–,–,"IC50 ([3]; Table^a 154): > 1 µM; IC50 ([4]; ATP 100 μM, Table^a 154): > 1 µM; IC50 ([1]; ATP 100 μM, Table^a 154): > 1 µM"

SMILES,IC50 ([4]; ATP 100 μM) [µM],IC50 [2] [µM],IC50 [3] [µM],further results
"FC(F)CN[C@H]1CC[C@H](c2nnn3cnc4[nH]ccc4c23)CC1 [399b, trans-N-(2,2-difluoroethyl)-4-(7H-pyrrolo[3,2-e][1,2,3]triazolo[1,5-c]pyrimidin-1-yl)cyclohexanamine]",> 1,0.0075,0.2,–
"N#C/C(=C\N1CCC(c2nnn3cnc4[nH]ccc4c23)CC1)c1ccc(Cl)cc1 [compound 235, (Z)-3-[4-(7H-pyrrolo[3,2-e][1,2,3]triazolo[1,5-c]pyrimidin-1-yl)piperidin-1-yl]-2-(4-chlorophenyl)acrylonitrile]",> 1,0.056,> 1,–
"COCCN(C)C[C@H]1CC[C@H](c2nnn3cnc4[nH]ccc4c23)CC1 [compound 325, N-{[trans-4-(7H-pyrrolo[3,2-e][1,2,3]triazolo[1,5-c]pyrimidin-1-yl)cyclohexyl]methyl}-2-methoxy-N-methylethanamine]",> 1,0.011,0.88,–
"Cc1ccc(CN2CCC(c3nnn4cnc5[nH]ccc5c34)CC2)s1 [compound 236, 1-{1-[(5-methylthiophen-2-yl)methyl]piperidin-4-yl}-7H-pyrrolo[3,2-e][1,2,3]triazolo[1,5-c]pyrimidine]",0.45,0.0068,> 1,–
"FC(F)(F)C(N[C@H]1CC[C@H](c2nnn3cnc4[nH]ccc4c23)CC1)C(F)(F)F [400b, trans-N-(1,1,1,3,3,3-hexafluoropropan-2-yl)-4-(7H-pyrrolo[3,2-e][1,2,3]triazolo[1,5-c]pyrimidin-1-yl)cyclohexanamine]",> 1,0.042,0.84,–
"N#Cc1ccc(CNC(=O)[C@H]2CC[C@H](c3nnn4cnc5[nH]ccc5c34)CC2)cc1 [compound 350, trans-N-(4-cyanobenzyl)-4-(7H-pyrrolo[3,2-e][1,2,3]triazolo[1,5-c]pyrimidin-1-yl)cyclohexanecarboxamide]",> 1,0.008,0.54,–
"N#Cc1cc(CN2CCC(c3nnn4cnc5[nH]ccc5c34)CC2)ccc1F [compound 223, 5-{[4-(7H-pyrrolo[3,2-e][1,2,3]triazolo[1,5-c]pyrimidin-1-yl)piperidin-1-yl]methyl}-2-fluorobenzonitrile]",0.94,0.015,> 1,–
"O=C(NCC(O)(c1ccc(F)cc1)C(F)(F)F)[C@H]1CC[C@H](c2nnn3cnc4[nH]ccc4c23)CC1 (stereo partly drawn) [compound 347, trans-4-(7H-Pyrrolo[3,2-e][1,2,3]triazolo[1,5-c]pyrimidin-1-yl)-N-[3,3,3-trifluoro-2-(4-fluorophenyl)-2-hydroxypropyl]cyclohexanecarboxamide]",0.65,0.0069,> 1,–
